The results in this text go back to patent US11072632B2, “Inhibitors of 17β-HSD1, 17β-HSD3 and 17β-HSD10” (UNIVERSITÉ LAVAL, priority 2011, dated 2021).

For one assay, the target named is T1, 17β-HSD1 (Homo sapiens, UniProt P14061).
T1 construct: endogenous in cells; host or cells: T-47D
T1 sequence (P14061 1-328): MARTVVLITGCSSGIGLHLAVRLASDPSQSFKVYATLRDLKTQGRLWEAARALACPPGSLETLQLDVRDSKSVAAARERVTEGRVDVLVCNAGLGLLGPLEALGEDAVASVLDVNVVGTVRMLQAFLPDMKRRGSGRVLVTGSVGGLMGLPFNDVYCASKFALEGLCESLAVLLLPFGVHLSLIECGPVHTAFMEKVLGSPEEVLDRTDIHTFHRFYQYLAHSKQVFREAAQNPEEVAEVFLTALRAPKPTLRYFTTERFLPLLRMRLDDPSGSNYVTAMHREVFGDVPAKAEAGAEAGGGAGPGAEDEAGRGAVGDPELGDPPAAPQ
As to the kind of experiment: Inhibition of 17β-HSD1 in T-47D intact cells (E1 into E2). The class given is cell-based. The settings on record: T47D; for inhibition at 0.1 µM: read-out: Inhibition (0.1 μM); for inhibition at 1 µM: read-out: Inhibition (1 μM). Here is the method: T-47D cells were seeded in a 24-well plate (3000 cells/well) in medium supplemented with insulin (50 ng/mL) and 5% dextran-coated charcoal treated FBS rather than 10% FBS to remove remaining hormones. […] Each inhibitor was assessed in triplicate. After incubation, the culture medium was removed and labelled steroids (E1 and E2) extracted with 1 mL of diethyl ether. The organic phases were separated and evaporated to dryness using nitrogen. Residues were dissolved in dichloromethane and dropped on silica gel thin layer chromatography plates (EMD Chemicals Inc., Gibbstown, N.J., USA) and eluted with a toluene/acetone (4:1) solvent system. Substrate [^14C]-E1 and metabolite [^14C]-E2 were identified by comparison with reference steroids and quantified using a Storm 860 system (Molecular Dynamics, Sunnyvale, Calif., USA).
T-47D cells were seeded in a 24-well plate (3000 cells/well) in 990 μL of medium supplemented with insulin (50 ng/mL) and 5% dextran-coated charcoal-treated FBS, which was used rather than untreated 10% FBS, to remove the remaining steroid hormones. […] The final concentration of ethanol in the well was adjusted to 0.1%. Additionally, 5 μL of a solution of [^14C]-estrone (American Radiolabeled Chemicals, Inc., St. Louis, Mo., USA) was added to obtain a final concentration of 60 nM. […] After incubation, the culture medium was removed and labeled steroids (E1 and E2) were extracted with 1 mL of diethyl ether. The organic phases were evaporated to dryness with nitrogen. Residues were dissolved in dichloromethane and dropped on silica gel thin layer chromatography plates (EMD Chemicals Inc., Gibbstown, N.J., USA) and eluted with toluene/acetone (4:1) as solvent system. Substrate [^14C]-E1 and metabolite [^14C]-E2 were identified by comparison with reference steroids (E1 and E2) and quantified using the Storm 860 system (Molecular Dynamics, Sunnyvale, Calif., USA).

For assay [1], the target named is T2, 17β-HSD3 (Homo sapiens, UniProt P37058).
T2 construct: expressed in transfected cells; host or cells: HEK-293 (homogenate)
T2 sequence (P37058 1-310): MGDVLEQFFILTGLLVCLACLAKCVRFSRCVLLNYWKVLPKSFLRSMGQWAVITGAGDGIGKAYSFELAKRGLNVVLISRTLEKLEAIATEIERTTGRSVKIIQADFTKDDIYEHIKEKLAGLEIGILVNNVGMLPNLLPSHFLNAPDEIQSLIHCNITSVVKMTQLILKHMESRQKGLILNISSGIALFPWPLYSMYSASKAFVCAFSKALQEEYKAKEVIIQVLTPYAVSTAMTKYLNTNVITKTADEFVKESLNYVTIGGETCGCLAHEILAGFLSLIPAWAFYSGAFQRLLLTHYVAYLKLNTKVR
As to the kind of experiment: Inhibition of 17β-HSD3 in homogenated HEK-293 cells. The note with it: for inhibition at 0.01 µM: read-out: Homo (%) (0.01 μM), Table 4; for inhibition at 1 µM: read-out: Homo (%) (1.0 μM), Table 4; for inhibition at 0.1 µM: read-out: Homo (%) (0.1 μM), Table 4. The class given is biochemical.

In assay [2] the target is T2, 17β-HSD3. As to the kind of experiment: Inhibition of 17β-HSD3 in intact HEK-293 cells. The class given is cell-based. The note with it: 0.1 μM; for inhibition at 0.1 µM: HEK293, 1 h, read-out: Intact cells (%) (0.1 μM), Table 4; for Intact cells (%) (0.1 μM), tested in another experiment: Table 4, footnote b.
Setting [3] is: Table 2 (17β-HSD1), [14C]-E1 60 nM, T-47D intact cells, 0.1 μM.
The mark [4] stands for this setting: Table 2 (17β-HSD1), [14C]-E1 60 nM, T-47D intact cells, 1 μM.

Like-named read-outs stand apart in the source and are kept apart here.

Turning to `C[C@]12CC[C@@H]3c4ccc(CCCl)cc4CC[C@H]3[C@@H]1C[C@H](Cc1cccc(C(N)=O)c1)[C@@H]2O` [Compound 9, 3-{[(16β,17β)-3-(2-chloroethyl)-17-hydroxyestra-1(10),2,4-trien-16-yl]methyl}benzamide], the inhibition at 0.1 µM on 17β-HSD1 amounted to 55%.

On to `C[C@]12CC[C@@H]3c4ccc(CCI)cc4CC[C@H]3[C@@H]1C[C@H](Cc1cccc(C(N)=O)c1)[C@@H]2O` [Compound 10, 3-{[(16β,17β)-17-hydroxy-3-(2-iodoethyl)estra-1(10),2,4-trien-16-yl]methyl}benzamide], for which the inhibition at 0.1 µM on 17β-HSD1 turned out to be 7%.

`C[C@]12CC[C@@H]3c4ccc(OCCBr)cc4CC[C@H]3[C@@H]1C[C@H](Cc1cccc(C(N)=O)c1)[C@@H]2O` [Compound 15, 3-{[(16β,17β)-3-(2-bromoethoxy)-17-hydroxyestra-1(10),2,4-trien-16-yl]methyl}benzamide]: the inhibition at 0.1 µM at 17β-HSD1 (setting [3]) was 39%. Moreover, the inhibition at 1 µM at 17β-HSD1 (setting [4]) was determined as 81%.

On to `C[C@]12CC[C@@H]3c4ccc(CCc5ccccc5)cc4CC[C@H]3[C@@H]1C[C@H](Cc1cccc(C(N)=O)c1)[C@@H]2O` [Compound 19, 3-{[(16β,17β)-17-hydroxy-3-(2-phenylethyl)estra-1(10),2,4-trien-16-yl]methyl}benzamide], for which, at 17β-HSD1, the inhibition at 0.1 µM amounted to 13%.

Regarding `C[C@]12CC[C@@]3(C[C@@H]1CC[C@@H]1[C@@H]2CC[C@]2(C)C(=O)CC[C@@H]12)CN(CCBr)C(=O)O3` [Compound 22, (3R,5S,8R,9S,10S,13S,14S)-3′-(2-bromoethyl)-10,13-dimethyltetrahydrodecahydro-2′H-spiro[cyclopenta[α]phenanthrene-3,5′-[1,3]oxazolidine]-2′,17(2H)-dione], at 17β-HSD3 [1], the inhibition at 0.01 µM came out at 17% and the inhibition at 1 µM was 93%. Also, the inhibition at 0.1 µM on 17β-HSD3 [2] was determined as 31%.

For the molecule `Cc1cccc(OCCN2C[C@]3(CC[C@@]4(C)[C@@H](CC[C@@H]5[C@@H]4CC[C@]4(C)C(=O)CC[C@@H]54)C3)OC2=O)c1` [Compound 23a, (3R,5S,8R,9S,10S,13S,14S)-10,13-dimethyl-3′-[2-(3-methylphenoxy)ethyl]tetrahydrodecahydro-2′H-spiro[cyclopenta[α]phenanthrene-3,5′-[1,3]oxazolidine]-2′,17(2H)-dione], at 17β-HSD3 [1], the inhibition at 0.01 µM amounted to 13% and the inhibition at 1 µM was 95%. Further, the inhibition at 0.1 µM at 17β-HSD3 [2] came to 40%.

For the molecule `Cc1cccc(S(=O)(=O)CCN2C[C@]3(CC[C@@]4(C)[C@@H](CC[C@@H]5[C@@H]4CC[C@]4(C)C(=O)CC[C@@H]54)C3)OC2=O)c1` [Compound 23b], at 17β-HSD3 [1], the inhibition at 0.01 µM was 0%, the inhibition at 0.1 µM was 52% and the inhibition at 1 µM worked out at 93%. The inhibition at 0.1 µM at 17β-HSD3 [2] came out at 5%.

On to `C[C@]12CC[C@@]3(C[C@@H]1CC[C@@H]1[C@@H]2CC[C@]2(C)C(=O)CC[C@@H]12)CN(CCN1CCCCC1)C(=O)O3` [Compound 23c, (3R,5S,8R,9S,10S,13S,14S)-10,13-dimethyl-3′-[2-(piperidin-1-yl)ethyl]tetrahydrodecahydro-2′H-spiro[cyclopenta[α]phenanthrene-3,5′-[1,3]oxazolidine]-2′,17(2H)-dione], for which, at 17β-HSD3 [1], the inhibition at 0.01 µM is 0%, the inhibition at 0.1 µM was 0% and the inhibition at 1 µM amounted to 21%. In addition, the “Intact cells (%) (0.1 μM), tested in another experiment” value at 17β-HSD3 [2] is reported as 10^b %.

Regarding `CCN(CCN1C[C@]2(CC[C@@]3(C)[C@@H](CC[C@@H]4[C@@H]3CC[C@]3(C)C(=O)CC[C@@H]43)C2)OC1=O)C1CCCCC1` [Compound 23e, (3R,5S,8R,9S,10S,13S,14S)-3′-{2-[cyclohexyl(ethyl)amino]ethyl}-10,13-dimethyltetradecahydro-2′H-spiro[cyclopenta[α]phenanthrene-3,5′-[1,3]oxazolidine]-2′,17(2H)-dione], on 17β-HSD3 [1], the inhibition at 0.01 µM came to 2%, the inhibition at 0.1 µM is 21% and the inhibition at 1 µM was found to be 72%. The inhibition at 0.1 µM on 17β-HSD3 [2] was 2%.

As to `CCCN(CCC)CCN1C[C@]2(CC[C@@]3(C)[C@@H](CC[C@@H]4[C@@H]3CC[C@]3(C)C(=O)CC[C@@H]43)C2)OC1=O` [Compound 23f, (3R,5S,8R,9S,10S,13S,14S)-3′-[2-(dipropylamino)ethyl]-10,13-dimethyltetradecahydro-2′H-spiro[cyclopenta[α]phenanthrene-3,5′-[1,3]oxazolidine]-2′,17(2H)-dione], at 17β-HSD3 [1], the inhibition at 0.01 µM is 0%, the inhibition at 0.1 µM is 10% and the inhibition at 1 µM is 62%. Also, the “Intact cells (%) (0.1 μM), tested in another experiment” value at 17β-HSD3 [2] is reported as 8^b %.

As for `CCCN(CCN1C[C@]2(CC[C@@]3(C)[C@@H](CC[C@@H]4[C@@H]3CC[C@]3(C)C(=O)CC[C@@H]43)C2)OC1=O)C(=O)CC` [Compound 23g, N-{(3R,5S,8R,9S,10S,13S,14S)-10,13-dimethyl-2′,17-dioxohexadecahydro-3′H-spiro[cyclopenta[α]phenanthrene-3,5′-[1,3]oxazolidine-3′-yl]ethyl}-N-propylpropanamide], on 17β-HSD3 [1], the inhibition at 0.01 µM came to 0%, the inhibition at 0.1 µM was 35% and the inhibition at 1 µM came out at 80%. In addition, on 17β-HSD3 [2], the inhibition at 0.1 µM was 25%.

Regarding `C[C@]12CC[C@@H]3c4ccc(CCCO)cc4CC[C@H]3[C@@H]1C[C@H](Cc1cccc(C(N)=O)c1)[C@@H]2O` [Compound 24, 3-{[(16β,17β)-17-hydroxy-3-(3-hydroxypropyl)estra-1(10),2,4-trien-16-yl]methyl}benzamide], the inhibition at 0.1 µM on 17β-HSD1 (setting [3]) is 16%.

As for `C[C@]12CC[C@@H]3c4ccc(CCCBr)cc4CC[C@H]3[C@@H]1C[C@H](Cc1cccc(C(N)=O)c1)[C@@H]2O` [Compound 25, 3-{[(16β,17β)-3-(3-bromopropyl)-17-hydroxyestra-1(10),2,4-trien-16-yl]methyl}benzamide], on 17β-HSD1, the inhibition at 0.1 µM is 37% and the inhibition at 1 µM turned out to be 82%.

With `CNC(=O)Cc1ccc2c(c1)CC[C@@H]1[C@@H]2CC[C@]2(C)[C@@H](O)[C@@H](Cc3cccc(C(N)=O)c3)C[C@@H]12` [Compound 32, 3-{[(16β,17β)-17-hydroxy-3-[2-(methylamino)-2-oxoethyl]estra-1(10),2,4-trien-16-yl]methyl}benzamide], at 17β-HSD1, the inhibition at 0.1 µM stood at 5% and the inhibition at 1 µM was determined as 15%.

For the molecule `CN(C)Cc1ccc2c(c1)CC[C@@H]1[C@@H]2CC[C@]2(C)[C@@H](O)[C@@H](Cc3cccc(C(N)=O)c3)C[C@@H]12` [Compound 40a, 3-{[(16β,17β)-3-[(dimethylamino)methyl]-17-hydroxyestra-1,3,5(10)-trien-16-yl]methyl}benzamide], on 17β-HSD1 (setting [3]), the inhibition at 0.1 µM came out at 12%. Besides, the inhibition at 1 µM on 17β-HSD1 (setting [4]) came out at 49%.

`C[C@]12CC[C@@H]3c4ccc(CN5CCCC5)cc4CC[C@H]3[C@@H]1C[C@H](Cc1cccc(C(N)=O)c1)[C@@H]2O` [Compound 40c, 3-{[(16β,17β)-17-hydroxy-3-(pyrrolidin-1-ylmethyl)estra-1,3,5(10)-trien-16-yl]methyl}benzamide]: on 17β-HSD1 (setting [3]), the inhibition at 0.1 µM came to 1%. For the same molecule, the inhibition at 1 µM at 17β-HSD1 (setting [4]) came out at 28%.

Turning to `C[C@]12CC[C@@H]3c4ccc(C(=O)N5CCCC5)cc4CC[C@H]3[C@@H]1C[C@H](Cc1cccc(C(N)=O)c1)[C@@H]2O` [Compound 41c, 3-{[(16β,17β)-17-hydroxy-3-(pyrrolidin-1-ylcarbonyl)estra-1,3,5(10)-trien-16-yl]methyl}benzamide], on 17β-HSD1, the inhibition at 0.1 µM was found to be 0% and the inhibition at 1 µM was determined as 13%.
